Results from the NIST ThermoML archive (doi:10.1016/j.jct.2015.11.027).
± gives the expanded uncertainty stated by the source.

Details: Liquid, Vibrating wire viscometry

Cc1ccc(C)cc1 [1,4-dimethylbenzene]
Details | viscosity [mPa·s]
293.03 K, 15000 kPa | 0.7277 ± 0.016
293.03 K, 20000 kPa | 0.7569 ± 0.017
293.03 K, 25000 kPa | 0.7883 ± 0.017
293.03 K, 30000 kPa | 0.8186 ± 0.018
293.04 K, 100 kPa | 0.6444 ± 0.015
293.04 K, 1000 kPa | 0.6494 ± 0.015
293.04 K, 5000 kPa | 0.672 ± 0.015
293.04 K, 10000 kPa | 0.6997 ± 0.016
302.86 K, 100 kPa | 0.5762 ± 0.013
302.86 K, 1000 kPa | 0.5804 ± 0.013
302.87 K, 5000 kPa | 0.5995 ± 0.014
302.87 K, 10000 kPa | 0.6244 ± 0.014
302.88 K, 15000 kPa | 0.6499 ± 0.015
302.88 K, 20000 kPa | 0.6747 ± 0.015
302.88 K, 25000 kPa | 0.7023 ± 0.016
302.89 K, 30000 kPa | 0.7274 ± 0.016
312.76 K, 100 kPa | 0.515 ± 0.012
312.76 K, 1000 kPa | 0.5186 ± 0.012
312.76 K, 15000 kPa | 0.5806 ± 0.013
312.76 K, 20000 kPa | 0.6027 ± 0.014
312.76 K, 25000 kPa | 0.6263 ± 0.014
312.76 K, 30000 kPa | 0.6494 ± 0.015
312.77 K, 5000 kPa | 0.5356 ± 0.012
312.77 K, 10000 kPa | 0.5575 ± 0.013
322.62 K, 100 kPa | 0.4653 ± 0.011
322.63 K, 1000 kPa | 0.4689 ± 0.011
322.64 K, 5000 kPa | 0.4833 ± 0.011
322.64 K, 10000 kPa | 0.5038 ± 0.012
322.64 K, 15000 kPa | 0.524 ± 0.012
322.64 K, 20000 kPa | 0.5442 ± 0.013
322.64 K, 25000 kPa | 0.5653 ± 0.013
322.65 K, 30000 kPa | 0.5861 ± 0.013
332.57 K, 30000 kPa | 0.5304 ± 0.012
332.58 K, 100 kPa | 0.4206 ± 0.01
332.58 K, 1000 kPa | 0.4237 ± 0.01
332.58 K, 5000 kPa | 0.4383 ± 0.01
332.58 K, 10000 kPa | 0.4564 ± 0.011
332.58 K, 15000 kPa | 0.4745 ± 0.011
332.58 K, 20000 kPa | 0.493 ± 0.011
332.58 K, 25000 kPa | 0.5109 ± 0.012
342.27 K, 100 kPa | 0.3815 ± 0.0093
342.27 K, 1000 kPa | 0.3842 ± 0.0093
342.28 K, 5000 kPa | 0.3977 ± 0.0096
342.28 K, 10000 kPa | 0.4144 ± 0.0099
342.28 K, 20000 kPa | 0.4482 ± 0.011
342.29 K, 15000 kPa | 0.4314 ± 0.01
342.29 K, 25000 kPa | 0.4649 ± 0.011
342.29 K, 30000 kPa | 0.4833 ± 0.011
352.2 K, 5000 kPa | 0.3634 ± 0.0089
352.2 K, 10000 kPa | 0.3791 ± 0.0092
352.2 K, 15000 kPa | 0.3945 ± 0.0095
352.2 K, 20000 kPa | 0.4111 ± 0.0098
352.2 K, 25000 kPa | 0.4263 ± 0.01
352.2 K, 30000 kPa | 0.4423 ± 0.01
352.21 K, 100 kPa | 0.3483 ± 0.0086
352.21 K, 1000 kPa | 0.3507 ± 0.0087
362.73 K, 100 kPa | 0.3194 ± 0.0081
362.74 K, 1000 kPa | 0.3217 ± 0.0081
362.75 K, 5000 kPa | 0.3331 ± 0.0083
362.76 K, 10000 kPa | 0.3467 ± 0.0086
362.76 K, 15000 kPa | 0.3616 ± 0.0089
362.77 K, 20000 kPa | 0.3756 ± 0.0092
362.81 K, 25000 kPa | 0.3915 ± 0.0095
362.82 K, 30000 kPa | 0.405 ± 0.0097
372.69 K, 20000 kPa | 0.348 ± 0.0086
372.69 K, 25000 kPa | 0.3614 ± 0.0089
372.69 K, 30000 kPa | 0.3752 ± 0.0091
372.7 K, 10000 kPa | 0.3203 ± 0.0081
372.7 K, 15000 kPa | 0.3341 ± 0.0084
372.71 K, 100 kPa | 0.2936 ± 0.0076
372.71 K, 1000 kPa | 0.296 ± 0.0076
372.71 K, 5000 kPa | 0.3061 ± 0.0078

Cc1ccccc1C [1,2-dimethylbenzene]
Details | viscosity [mPa·s]
273.48 K, 100 kPa | 1.102 ± 0.024
273.48 K, 1000 kPa | 1.113 ± 0.024
273.48 K, 5000 kPa | 1.154 ± 0.025
273.48 K, 10000 kPa | 1.209 ± 0.026
273.48 K, 15000 kPa | 1.264 ± 0.027
273.48 K, 20000 kPa | 1.319 ± 0.028
273.48 K, 25000 kPa | 1.378 ± 0.03
273.48 K, 30000 kPa | 1.436 ± 0.031
283.21 K, 10000 kPa | 1.031 ± 0.023
283.21 K, 15000 kPa | 1.075 ± 0.023
283.21 K, 20000 kPa | 1.121 ± 0.024
283.21 K, 25000 kPa | 1.169 ± 0.025
283.21 K, 30000 kPa | 1.216 ± 0.026
283.22 K, 100 kPa | 0.9464 ± 0.021
283.22 K, 1000 kPa | 0.9529 ± 0.021
283.22 K, 5000 kPa | 0.9859 ± 0.022
293.04 K, 100 kPa | 0.8196 ± 0.018
293.04 K, 1000 kPa | 0.8252 ± 0.018
293.04 K, 5000 kPa | 0.8535 ± 0.019
293.04 K, 10000 kPa | 0.8901 ± 0.019
293.05 K, 15000 kPa | 0.9269 ± 0.02
293.05 K, 20000 kPa | 0.9685 ± 0.021
293.05 K, 25000 kPa | 1.006 ± 0.022
293.06 K, 30000 kPa | 1.048 ± 0.023
302.87 K, 100 kPa | 0.7178 ± 0.016
302.87 K, 1000 kPa | 0.7228 ± 0.016
302.87 K, 20000 kPa | 0.8457 ± 0.019
302.87 K, 25000 kPa | 0.879 ± 0.019
302.87 K, 30000 kPa | 0.9126 ± 0.02
302.88 K, 5000 kPa | 0.7489 ± 0.017
302.88 K, 10000 kPa | 0.7794 ± 0.017
302.88 K, 15000 kPa | 0.8128 ± 0.018
312.66 K, 100 kPa | 0.6371 ± 0.014
312.66 K, 10000 kPa | 0.6901 ± 0.015
312.66 K, 20000 kPa | 0.7486 ± 0.017
312.66 K, 25000 kPa | 0.7781 ± 0.017
312.66 K, 30000 kPa | 0.8077 ± 0.018
312.67 K, 1000 kPa | 0.6414 ± 0.015
312.67 K, 5000 kPa | 0.6635 ± 0.015
312.67 K, 15000 kPa | 0.7185 ± 0.016
321.85 K, 100 kPa | 0.5744 ± 0.013
321.85 K, 1000 kPa | 0.5794 ± 0.013
321.85 K, 10000 kPa | 0.6241 ± 0.014
321.85 K, 15000 kPa | 0.6489 ± 0.015
321.85 K, 30000 kPa | 0.7248 ± 0.016
321.86 K, 5000 kPa | 0.5991 ± 0.014
321.86 K, 20000 kPa | 0.6748 ± 0.015
321.86 K, 25000 kPa | 0.6987 ± 0.016
332.47 K, 100 kPa | 0.515 ± 0.012
332.47 K, 1000 kPa | 0.5176 ± 0.012
332.48 K, 5000 kPa | 0.5347 ± 0.012
332.48 K, 10000 kPa | 0.5575 ± 0.013
332.48 K, 15000 kPa | 0.5798 ± 0.013
332.48 K, 20000 kPa | 0.6029 ± 0.014
332.48 K, 25000 kPa | 0.6273 ± 0.014
332.48 K, 30000 kPa | 0.6504 ± 0.015
343.06 K, 100 kPa | 0.4586 ± 0.011
343.07 K, 1000 kPa | 0.4624 ± 0.011
343.07 K, 5000 kPa | 0.4782 ± 0.011
343.07 K, 10000 kPa | 0.499 ± 0.012
343.08 K, 15000 kPa | 0.5195 ± 0.012
343.08 K, 25000 kPa | 0.5603 ± 0.013
343.08 K, 30000 kPa | 0.5817 ± 0.013
343.09 K, 20000 kPa | 0.5401 ± 0.012
353.01 K, 30000 kPa | 0.5312 ± 0.012
353.02 K, 10000 kPa | 0.4549 ± 0.011
353.02 K, 15000 kPa | 0.4725 ± 0.011
353.02 K, 20000 kPa | 0.4922 ± 0.011
353.02 K, 25000 kPa | 0.5113 ± 0.012
353.03 K, 5000 kPa | 0.4342 ± 0.01
353.04 K, 100 kPa | 0.4177 ± 0.01
353.04 K, 1000 kPa | 0.4196 ± 0.01
362.85 K, 100 kPa | 0.3838 ± 0.0093
362.85 K, 1000 kPa | 0.3862 ± 0.0094
362.85 K, 5000 kPa | 0.4001 ± 0.0096
362.85 K, 10000 kPa | 0.4169 ± 0.01
362.86 K, 15000 kPa | 0.434 ± 0.01
362.86 K, 20000 kPa | 0.4506 ± 0.011
362.87 K, 25000 kPa | 0.469 ± 0.011
362.87 K, 30000 kPa | 0.4842 ± 0.011
372.83 K, 100 kPa | 0.3528 ± 0.0087
372.84 K, 1000 kPa | 0.3556 ± 0.0088
372.84 K, 5000 kPa | 0.3683 ± 0.009
372.85 K, 10000 kPa | 0.3831 ± 0.0093
372.85 K, 25000 kPa | 0.4324 ± 0.01
372.86 K, 15000 kPa | 0.4015 ± 0.0097
372.86 K, 20000 kPa | 0.4156 ± 0.0099
372.86 K, 30000 kPa | 0.4477 ± 0.011
